This note sets out measurements from BindingDB's records for doi:10.1021/jm00105a058 (J. Uriach & Cía., 1991).

By IC50 is commonly meant the concentration that inhibits the measured activity by half.

One experiment is described as follows: Inhibitory activity expressed as the concentration required to inhibit platelet-activating factor (PAF) induced maximum aggregation by 50%.
With `CCCCCCCCCCCCCCCCOCC1COC(COC(=O)N(Cc2cccc[n+]2CC)C(C)=O)C1` (stereo not given), it took 0.0082 µM to reach half-maximal inhibition (IC50).

As for `CCCCCCCCCCCCCCCCOCC1COC(COC(=O)N(Cc2cccc[n+]2CC)C(C)=O)O1` (stereo not given) [2-{[Acetyl-(4-hexadecyloxymethyl-[1,3]dioxolan-2-ylmethoxycarbonyl)-amino]-methyl}-1-ethyl-pyridinium; chloride], the IC50 is 0.015 µM.

Test in a further experiment: as above
The source holds these as a separate data set.
With `CCCCCCCCCCCCCCCCCCOCC1COC(COC(=O)CCCCC[n+]2ccsc2)C1` (stereo not given), half-maximal inhibition (IC50) was put at 9.2 µM. In other words, the single-digit micromolar range.

Take `CCCCCCCCCCCCCCCCCCOCC1COC(COC(=O)NCc2cc[n+](CC)cc2)C1` (stereo not given): the IC50 turned out to be 8 µM.

`CCCCCCCCCCCCCCCCCC1OCC(COCCCCCC[n+]2cccc3ccccc32)O1` (stereo not given) showed an IC50 of 2.7 µM.

In turn, `CCCCCCCCCCCCCCCCCC1OCC(COCCCCCC[N+]2(C)CCOCC2)O1` (stereo not given) showed an IC50 of 10 µM.

In the case of `CCCCCCCCCCCCCCC1COC(COCCCCCCC[n+]2ccsc2)C1` (stereo not given), the IC50 was 0.83 µM.

As for `CCCCCCCCCCCCCCCCCC1OCC(COCCCCCC[N+](C)(C)C)O1` (stereo not given), the IC50 worked out at 2.4 µM.

Take `CCCCCCCCCCCCCCCC1OCC(COC(=O)CCCCC[n+]2ccsc2)O1` (stereo not given): the IC50 came to 3 µM.

In turn, `CCCCCCCCCCCCCCC1COC(COC(=O)N(Cc2cccc[n+]2CC)C(C)=O)C1` (stereo not given) displayed an IC50 of 0.14 µM.

Turning to `CCCCCCCCCCCCCC1OCC(COC(=O)CCCCC[n+]2ccsc2)O1` (stereo not given), the IC50 turned out to be 20 µM.

`CCCCCCCCCCCCCCCCCC1OCC(COC(=O)N(Cc2cccc[n+]2CC)C(C)=O)O1` (stereo not given) registered a half-inhibitory concentration (IC50) of 0.21 µM.

On to `CCCCCCCCCCCCCCCCCCOCC1COC(COC(=O)N(Cc2cc[n+](CC)cc2)C(C)=O)C1` (stereo not given), for which the IC50 was found to be 1.6 µM.

For the molecule `CCCCCCCCCCCCCCCCCCOCC1CC(COCCCCC[n+]2ccsc2)CO1` (stereo not given), the IC50 is 2.1 µM.

`CCCCCCCCCCCCCCOCC1COC(COCCCCCCC[n+]2ccsc2)C1` (stereo not given) came in with an IC50 of 1.7 µM.

`CCCCCCCCCCCCCCCCCCOCC1COC(COC(=O)N(Cc2cccc[n+]2CC)C(C)=O)O1` (stereo not given) returned an IC50 of 0.094 µM.

`CCCCCCCCCCCCCCCCCC1OCC(COCCCCCC[n+]2ccsc2)O1` (stereo not given) showed an IC50 of 1.4 µM.

Molecule `CCCCCCCCCCCCCCCCCCC1COC(COC(=O)N(Cc2cccc[n+]2CC)C(C)=O)C1` (stereo not given) yielded an IC50 of 0.47 µM. Against the preceding molecule, the IC50 is about 3-fold lower.

The molecule `CCCCCCCCCCCCCCCCC1COC(COCCCCCCC[n+]2ccsc2)C1` (stereo not given) showed an IC50 of 1.7 µM.

`CCCCCCCCCCCCCCCCOCC1COC(COC(=O)NCc2cccc[n+]2CC)C1` (stereo not given) registered an IC50 of 5.3 µM.

`CCCCCCCCCCCCCCC1COC(COP(=O)([O-])OCC[n+]2ccccc2)C1` (stereo not given) yielded an IC50 above 100 µM.

As to `CCCCCCCCCCCCCCCCOCC1OCC(COCCCC[n+]2ccsc2)O1` (stereo not given), inhibition was half-maximal at 1.2 µM (IC50).

`CCCCCCCCCCCCCCCCCCOCC1COC(COC(=O)N(Cc2ccc[n+](CC)c2)C(C)=O)C1` (stereo not given) came in with an IC50 of 2.5 µM.

Molecule `CCCCCCCCCCCCCCCCOCC1OCC(COC(=O)N(Cc2cccc[n+]2CC)C(C)=O)O1` (stereo not given) returned an IC50 of 0.083 µM.

Consider `CCCCCCCCCCCCCCCCCC1COC(COC(=O)N(Cc2cccc[n+]2CC)C(C)=O)O1` (stereo not given), for which it took 0.024 µM to reach half-maximal inhibition (IC50).

`CCCCCCCCCCCCCCCCCCOCC1COC(COC(=O)N=c2ccn(CC)cc2)C1` (stereo not given): the midpoint of inhibition, the IC50, lay at 1.9 µM.

The molecule `CCCCCCCCCCCCCCCCOCC1COC(COCCCCCC[n+]2ccsc2)C1` (stereo not given) gave an IC50 of 0.54 µM.

Molecule `CCCCCCCCCCCCCCCCOCC1COC(COC(=O)N(C(C)=O)c2cc[n+](CC)cc2)C1` (stereo not given) had an IC50 of 0.86 µM. This IC50 is about 1.6-fold higher than that of the molecule before.

Molecule `CCCCCCCCCCCCCCCCCC1OCC(COP(=O)([O-])OCC[N+](C)(C)C)O1` (stereo not given) had an IC50 above 100 µM.

On to `CCCCCCCCCCCCCCCCOCC1OCC(COC(=O)CCCCC[n+]2ccsc2)O1` (stereo not given), for which the IC50 was determined as 4.9 µM.

Molecule `CCCCCCCCCCCCCCCCOCC1COC(COC(=O)N(Cc2cccc[n+]2C)C(C)=O)C1` (stereo not given) had an IC50 of 0.2 µM. Compared with the last molecule, the IC50 is about 24-fold lower.

With `CCCCCCCCCCCCCCCCOCC1CCC(COC(=O)N(Cc2cccc[n+]2CC)C(C)=O)O1` (stereo not given), 0.099 µM corresponded to half-maximal inhibition (IC50).

In the case of `CCCCCCCCCCCCCCCC1CCC(COC(=O)CCCCC[n+]2ccsc2)O1` (stereo not given), the IC50 amounted to 3.1 µM. This IC50 is about 31-fold higher than that of the molecule before.

`CCCCCCCCCCCCCCCCOCC1COC(COC(=O)N(CCc2cccc[n+]2CC)C(C)=O)C1` (stereo not given) gave an IC50 of 2.6 µM.

`CCCCCCCCCCCCOCC1COC(COCCCCCCC[n+]2ccsc2)C1` (stereo not given): the IC50 is 1.1 µM.

Regarding `CCCCCCCCCCCCCCOCC1COC(COCCCCCC[n+]2ccsc2)C1` (stereo not given), the midpoint of inhibition, the IC50, lay at 1.4 µM.

Turning to `CCCCCCCCCCCCCCCCOCC1COC(COC(=O)N(C(C)=O)c2ccc[n+](CC)c2)C1` (stereo not given), 2.3 µM corresponded to half-maximal inhibition (IC50).

As to `CCCCCCCCCCCCCCCCOCC1OCC(COCCCCCC[n+]2ccsc2)O1` (stereo not given), the IC50 came out at 1.3 µM.

Take `CCCCCCCCCCCCCCCCCC1OCC(COCCCCCC[n+]2cscc2C)O1` (stereo not given): the IC50 was 3.1 µM. This IC50 is about 2.4-fold higher than that of the molecule before.

The molecule `CCCCCCCCCCCCCCCCCC1OCC(COCCCCCCCC[n+]2ccsc2)O1` (stereo not given) yielded an IC50 of 3.7 µM.

`CCCCCCCCCCCCCCCCCCOCC1OCC(COC(=O)N(Cc2cccc[n+]2CC)C(C)=O)O1` (stereo not given) registered a half-inhibitory concentration (IC50) of 0.14 µM.

`CCCCCCCCCCCCCCC1COC(COCCCCCC[N+](C)(C)C)C1` (stereo not given) had an IC50 of 8.2 µM.

Molecule `CCCCCCCCCCCCCCCCCC1OCC(COCCCCCC[n+]2ccccc2)O1` (stereo not given) had an IC50 of 3 µM.

In turn, `CCCCCCCCCCCCCCCCOCC1COC(COC(=O)N(Cc2cccc[n+]2CC)C(C)=O)C1` (stereo not given) returned a half-maximal inhibitory concentration (IC50) of 0.018 µM.

Turning to `CCCCCCCCCCCCCCCCCC1CCC(COC(=O)N(Cc2cccc[n+]2CC)C(C)=O)O1` (stereo not given), half-maximal inhibition (IC50) was put at 0.071 µM.

In the case of `CCCCCCCCCCCCCCCCCCCC1OCC(COC(=O)CCCCC[n+]2ccsc2)O1` (stereo not given), the IC50 came out at 5.5 µM.

In the case of `CCCCCCCCCCCCCCC1COC(COCCCCCC[n+]2cccc3ccccc32)C1` (stereo not given), the IC50 stood at 1.9 µM.

In turn, `CCCCCCCCCCCCCCCCOCC1COC(COC(=O)N(Cc2ccccn2)C(C)=O)C1` (stereo not given) yielded an IC50 of 11 µM.

For the molecule `CCCCCCCCCCCCCCCCCC1OCC(COC(=O)CCCCC[n+]2ccsc2)O1` (stereo not given), the IC50 came to 1.1 µM.

Regarding `CCCCCCCCCCCCCCCCCCOCC1CC(COCCCCCCC[n+]2ccsc2)CO1` (stereo not given), the midpoint of inhibition, the IC50, lay at 3.9 µM.

The molecule `CC1OCC(COC(=O)CCCCC[n+]2ccsc2)O1` (stereo not given) came in with an IC50 of 150 µM.

`CCCCCCCCCCCCCCCCCCOCC1COC(COC(=O)N(Cc2cccc[n+]2CC)C(C)=O)C1` (stereo not given) gave an IC50 of 0.052 µM.

In turn, `CCCCCCCCCCCCCCOCC1COC(COC(=O)N(Cc2cccc[n+]2CC)C(C)=O)O1` (stereo not given) showed an IC50 of 0.11 µM. This IC50 lies about 2.1-fold higher than the previous one.

`CCCCCCCCCCCCCCCCCCOCC1CC(COC(=O)CCCCC[n+]2ccsc2)CO1` (stereo not given) returned a half-inhibitory concentration (IC50) of 1.5 µM.

`CCCCCCCCCCCCCCC1COC(COC(=O)CCCCC[n+]2ccsc2)C1` (stereo not given) came in with an IC50 above 50 µM.

Regarding `CCCCCCCCCCCCCCC1COC(COCCCCCC[n+]2ccsc2)C1` (stereo not given), it took 2.1 µM to reach half-maximal inhibition (IC50).

Take `CCCCCCCCCCCCCCCCOCC1COC(COC(=O)CCCCC[n+]2ccsc2)C1` (stereo not given): the IC50 amounted to 3.6 µM.

`CCCCCCCCCCCCCCC1COC(COCCCCCCCC[n+]2ccsc2)C1` (stereo not given) had a half-maximal inhibitory concentration (IC50) of 1.1 µM. Compared with the last molecule, the IC50 is about 3.3-fold lower.

Turning to `CCCCCCCCCCCCCCCCOCC1COC(COC(=O)N(Cc2cccc[n+]2CC)C(=O)OCC)C1` (stereo not given), the IC50 is 0.073 µM.

Consider `CCCCCCCCCCCCCCCCCC1OCC(COCCCC[n+]2ccsc2)O1` (stereo not given), for which the IC50 came to 6 µM.

On to `CCCCCCCCCCCCCCC1COC(COP(=O)([O-])OCC[n+]2ccsc2)C1` (stereo not given), for which the IC50 was above 100 µM.

`CCCCCCCCCCCCCCCCCC1OCC(COP(=O)([O-])OCC[n+]2ccccc2)O1` (stereo not given) gave an IC50 above 100 µM.

With `CCCCCCCCCCCCCCC1COC(COP(=O)([O-])OCC[N+](C)(C)C)C1` (stereo not given), the half-inhibitory concentration (IC50) was above 200 µM.

The molecule `CCCCCCCCCCCCCCCCOCC1CC(COCCCCCC[n+]2ccsc2)CO1` (stereo not given) came in with an IC50 of 1.4 µM.

In turn, `CCCCCCCCCCCCCCC1COC(COCCCC[n+]2ccsc2)C1` (stereo not given) came in with an IC50 of 39 µM.

As for `CCCCCCCCCCCCCCCCOCC1COC(COC(=O)N(Cc2cccc[n+]2CC)C(C)=O)O1` (stereo not given) [2-{[Acetyl-(4-hexadecyloxymethyl-[1,3]dioxolan-2-ylmethoxycarbonyl)-amino]-methyl}-1-ethyl-pyridinium; chloride], the IC50 was found to be 0.019 µM.

The molecule `CCCCCCCCCCCCCCCC1CCC(COCCCCCC[n+]2ccsc2)O1` (stereo not given) showed an IC50 of 1.3 µM. Against the preceding molecule, the IC50 is about 68-fold higher.

In turn, `CCCCCCCCCCCCCCCC1CCC(COC(=O)N(Cc2cccc[n+]2CC)C(C)=O)O1` (stereo not given) yielded a 50% inhibitory concentration (IC50) of 0.08 µM.

Regarding `CCCCCCCCCCCCCCCCOCC1COC(COC(=O)NCCc2cccc[n+]2CC)C1` (stereo not given), the IC50 was determined as 2.8 µM.

`CCCCCCCCCCCCCCOCC1COC(COC(=O)N(Cc2cccc[n+]2CC)C(C)=O)C1` (stereo not given) returned an IC50 of 0.085 µM.
